# Test system: Leishmania donovani
# Test: Antileishmanial assay, Leishmania in infected macrophages (L. donovani)
# Conditions: Leishmania donovani, Macrophage, read-out: IC50 Leishmania in infected macrophages
row,SMILES,IC50
1,"C=C[C@@H](C#CC#C[C@@H](CCCCCCCCC)NC(=O)c1cccc(C)c1)OC(C)=O [Compound 66, (3S,8R)-8-(3-methylbenzamido)heptadeca-1-en-4,6-diyn-3-yl acetate]",120 nM
2,"C=C[C@@H](C#CC#C[C@@H](CCCC1CCCCC1)NC(=O)c1ccccc1)OC(C)=O [Compound 79, (3S,8R)-8-benzamido-11-cyclohexylundeca-1-en-4,6-diyn-3-yl acetate]",27 nM
3,"C=C[C@H](O)C#CC#C[C@@H](CCCCCCCCC)NC(=O)c1ccccc1 [Compound 56, N-((3S,8R)-3-hydroxyheptadeca-1-en-4,6-diyn-8-yl)benzamide]",5 nM
4,"C=C[C@H](O)C#CC#C[C@@H](CCCCCCCCC)NC(C)=O [Compound 59, N-((3S,8R)-3-hydroxyheptadeca-1-en-4,6-diyn-8-yl)acetamide]",18 nM
5,"C=C[C@@H](C#CC#C[C@@H](CCCCCCCCC)NC(=O)c1ccccc1Cl)OC(C)=O [Compound 64, (3S,8R)-8-(2-chlorobenzamido)heptadeca-1-en-4,6-diyn-3-yl acetate]",109 nM
6,"C/C=C/[C@H](O)C#CC#C[C@@H](CCCCCCCCC)NCCCC [Compound 75, (4S,9R,E)-9-(butylamino)octadeca-2-en-5,7-diyn-4-ol]",31 nM
7,"C=C[C@@H](C#CC#C[C@@H](CCCCCCCCC)NC(=O)c1cnccn1)OC(C)=O [Compound 63, (3S,8R)-8-(pyrazine-2-carboxamido)heptadeca-1-en-4,6-diyn-3-yl acetate]",42 nM
8,"C=C[C@@H](C#CC#CC(CCCCCCCCC)NC(=O)c1ccc(Cl)cc1)OC(C)=O (stereo in doubt) [Compound 39, (3S,8R)-8-(4-chlorobenzamido)heptadeca-1-en-4,6-diyn-3-yl acetate]",112 nM
9,"C=C[C@H](O)C#CC#C[C@@H](CCCCCCCCC)NCCCC [Compound 55, (3S,8R)-8-(butylamino)heptadeca-1-en-4,6-diyn-3-ol]",3 nM

# Source: patent publication US20130261133A1, “Therapeutic Compounds for Protozoal and Microbial Infections and Cancer” (THE UNIVERSITY OF MONTANA, priority 2012, published 2013)
